Laboratory results: patent US5849737A, “Compositions and methods for treating pain” (priority 1995, dated 1998)
“Also recorded” adds a separate entry of the source. Like-named read-outs stand apart in the source and are kept apart here.

Experiments:
[1] = system: tactile allodynia (paw withdrawal thresholds); assay: Tactile allodynia (50% paw withdrawal threshold, von Frey) after intravenous drug, L5/L6 spinal nerve ligated rats; type: in vivo, Male Harlan Sprague-Dawley rats
From the text: For intravascular access, external jugular catheters were fashioned from PE-50 tubing and inserted into an external jugular vein under halothane/oxygen anesthesia. Arterial catheters were also fashioned from PE-50 with a small bouton 1 cm from the intravascular end for suture securing; they were inserted into a carotid artery, taking care to spare the surrounding nerves. All catheters were flushed with heparinized saline (10 U/ml) and tunneled subcutaneously to emerge at the posterior base of the neck, and capped when not in use. […] Rats were placed in a plastic cage with an open wire mesh bottom and allowed to accommodate for approximately fifteen minutes. A series of 8 von Frey filaments with logarithmically incremental stiffness (0.41, 0.70, 1.20, 2.00, 3.63, 5.50, 8.50, and 15.10 g) (Stoelting, Wood Dale, Ill.) was used to determine the 50% threshold for paw withdrawal to light mechanical stimuli (PWT). In brief, von Frey hairs were sequentially applied using an up-and-down paradigm to the left mid-plantar hindpaw with sufficient force to cause slight filament buckling. Positive responses were noted if the paw was sharply withdrawn. […] Otherwise, PWT were calculated by noting the stimulus level at which the first change in behavior occurred, collecting four additional responses to the continued up-and-down oscillation of stimulus presentation around the response threshold, and interpolating the 50% response threshold. […] The following equation was used to compute %MPE: [formula] Plasma drug levels and PWT were correlated using linear regression. Serially measured PWT and %MPE were compared using repeated measures ANOVA.

[2] = Toxicity and plasma bupivacaine levels on intravenous infusion (GC assay); type: in vivo, Male Harlan Sprague-Dawley rats
From the text: For intravascular access, external jugular catheters were fashioned from PE-50 tubing and inserted into an external jugular vein under halothane/oxygen anesthesia. Arterial catheters were also fashioned from PE-50 with a small bouton 1 cm from the intravascular end for suture securing; they were inserted into a carotid artery, taking care to spare the surrounding nerves. All catheters were flushed with heparinized saline (10 U/ml) and tunneled subcutaneously to emerge at the posterior base of the neck, and capped when not in use.
For bupivacaine assays, samples were obtained by withdrawing and discarding approximately 0.3 cc of blood from arterial cannulae, and then withdrawing samples of approximately 0.5 cc volume. These samples were centrifuged and the plasma supernatant was frozen at -20° C. until analysis. […]
Bupivacaine was quantitated by capillary GC with nitrogen-phosphorus detection [Bjork M et al., Journal of Chromatography 533:229-234 (1990)]. […] Split injections (1.5:1) were performed with a Hewlett Packard 7673A automatic sampler, and the chromatograms were recorded and analyzed with H-P Chemstation (MSDOS) software. […]
(§1) Plasma drug levels and PWT were correlated using linear regression. Serially measured PWT and %MPE were compared using repeated measures ANOVA.

trigeminal neuralgia = settings: oral; cited from earlier work
neuropathic pain states = settings: orally available lidocaine congeners; systemically administered local anesthetics; cited from earlier work
[3] = system: painful diabetic neuropathy; settings: cited from earlier work; for clinical effect in painful diabetic neuropathy: lidocaine intravenous, mexiletine oral
[4] = system: peripheral nerve injury pain; settings: lidocaine intravenous; mexiletine oral; cited from earlier work
[5] = system: tactile allodynia (paw withdrawal thresholds); assay: Tactile allodynia (50% paw withdrawal threshold, von Frey) after intrathecal drug, L5/L6 spinal nerve ligated rats; type: in vivo, Male Harlan Sprague-Dawley rats; settings: IT; lidocaine 500 μg, MEGX 500 μg, 3-OH L 58 μg
Experimental: (§2) Male Harlan Sprague-Dawley rats were used (100-200 g). Rats were housed 2-3 to a cage with corn cob bedding and Purina rat chow and water ad libitum, in a standard facility with a 12 h/ 12 h day/night cycle. After surgical procedures involving chronic indwelling catheter insertion, animals were housed singly to prevent catheter damage.
Rats were allowed to recover 5-7 days before further testing or surgeries.
(§3) The catheters were 9 cm in intrathecal length and terminated near the lumbar enlargement. The rostral 3 cm of catheter was tunneled under the skin to externalize between the ears. Rats with neurologic deficits were discarded.
(§4) Monoethylglycinexylidide (MEGX) was dissolved in physiologic saline; 3-hydroxylidocaine (3-OH L) was dissolved in DMSO for intravenous administration.
Intravenous drugs were delivered to awake, unrestrained rats by slow infusion using a syringe pump (Harvard apparatus 22). Intrathecal drugs were delivered to awake, briefly restrained rats in a volume of 10 μl, followed by 10 μl of vehicle flush, using a calibrated tubing extension with a 30-gauge adapter fitting the implanted intrathecal catheter, attached to a geared Hamilton 100 μl glass syringe. IT drug delivery was monitored by observing the advancement of a small air bubble down the tubing.
Rats were placed in a plastic cage with an open wire mesh bottom and allowed to accommodate for approximately fifteen minutes. […] In brief, von Frey hairs were sequentially applied using an up-and-down paradigm to the left mid-plantar hindpaw with sufficient force to cause slight filament buckling. Positive responses were noted if the paw was sharply withdrawn. […] Otherwise, PWT were calculated by noting the stimulus level at which the first change in behavior occurred, collecting four additional responses to the continued up-and-down oscillation of stimulus presentation around the response threshold, and interpolating the 50% response threshold. […] The following equation was used to compute %MPE: [formula]
as §1

motor function = assay: Motor and behavioral effects after intrathecal administration
Experimental: as §2
To induce neuropathy, rats were anesthetized with halothane/oxygen, and the left L5/L6 spinal nerves were exposed via a dorsal midline incision and ligated tightly with 6-0 silk suture according to the reported method [Kim S H et al., Pain 50:355-363 (1992)]. Rats were allowed to recover 5-7 days before further testing or surgeries.
as §3, with “Intrathecal PE-10 catheters were implanted under halothane/oxygen anesthesia [Yaksh T L et al., Physiol Behav 17:1031-1036 (1976)]. The catheters” for “The catheters”
as §4
Intravenous drugs were delivered to awake, unrestrained rats by slow infusion using a syringe pump (Harvard apparatus 22). […] IT drug delivery was monitored by observing the advancement of a small air bubble down the tubing.

[6] = system: tactile allodynia (paw withdrawal thresholds); assay: Mechanical allodynia after single i.p. dose in SD rats (left L5/L6 spinal nerve ligation); type: in vivo
[7] = system: tactile allodynia (paw withdrawal thresholds); assay: Mechanical allodynia after single i.p. dose in DA rats (left L5/L6 spinal nerve ligation); type: in vivo; settings: for effect on tactile allodynia, DA rats: single i.p. dose, lidocaine 60 mg/kg, 3-OHL 15 mg/kg (P<0.002)
[8] = system: tactile allodynia (paw withdrawal thresholds); settings: IV systemic lidocaine, cited from earlier work
[9] = system: tactile allodynia (paw withdrawal thresholds); settings: after termination of motor block [Chaplan et al. (1993)]; cited from earlier work
[10] = system: acutely injured peripheral terminals; settings: in vitro, protein-free system; cited from earlier work
neuromata = settings: intravenous, whole animals; cited from earlier work
dorsal root ganglion = settings: intravenous, whole animals; cited from earlier work
[11] = system: sural nerve evoked after discharges; settings: IV, 1 mg/kg; cited from earlier work
[12] = system: polysynaptic C-fiber evoked flexor responses; settings: IV, 1-5 mg/kg, cited from earlier work
[13] = system: wide dynamic range neurons; settings: IV, 3-4 mg/kg, rat; cited from earlier work
[14] = system: centrally organized nociceptive flexion response; settings: painful diabetic neuropathy; cited from earlier work
[15] = DA rats; some species of rats; cited from earlier work
[16] = system: P45ONF(human) (P-450 PB-1(rat)(IIIA4) enzyme); settings: lidocaine metabolite formation; cited from earlier work

Structure (SMILES): CCCCN1CCCCC1C(=O)Nc1c(C)cccc1C (centres unmarked) [bupivacaine]
- effect of intravenous infusion on allodynia ([1]; IV infusion, up to plasma concentrations which caused evident toxicity, 15 samples from 4 rats, P=0.11, linear regression): inactive against allodynia; also recorded: no effect on allodynia
- correlation of plasma bupivacaine levels with %MPE (allodynia suppression) ([1]; IV, 4 rats, 15 samples, plasma levels up to toxic range (FIG. 1)): lack of correlation
- toxicity on intravenous infusion ([2]; IV infusion): ataxia and lethargy; also recorded: Higher doses resulted in seizure
- mean plasma level at higher doses that resulted in seizure ([2]; IV, N=4, unit not given): 7.4±0.7

Structure (SMILES): Cc1cccc(C)c1NC(=O)C(C)N (centres unmarked) [tocainide]
- clinical effect in trigeminal neuralgia (trigeminal neuralgia): analgesic effects
- clinical efficacy in neuropathic pain states (neuropathic pain states): far from universally effective
- tolerability in neuropathic pain states (neuropathic pain states): in many cases are poorly tolerated due to side effects, including some which may be life-threatening

Structure (SMILES): Cc1cccc(C)c1OCC(C)N (centres unmarked) [mexiletine]
- clinical effect in painful diabetic neuropathy [3]: analgesic effects
- clinical effect in peripheral nerve injury pain [4]: analgesic effects
- clinical efficacy in neuropathic pain states (neuropathic pain states): far from universally effective
- tolerability in neuropathic pain states (neuropathic pain states): in many cases are poorly tolerated due to side effects, including some which may be life-threatening

Structure (SMILES): CCN(CC)CC(=O)Nc1c(C)cccc1C [lidocaine]
- effect on allodynia thresholds after IT delivery [5]: no effect on allodynia was seen
- duration of motor dysfunction after IT delivery (motor function; 500 μg): approximately 10 minutes
- motor effects after IT delivery (motor function; lidocaine 500 μg, MEGX 500 μg, 3-OH L 58 μg): acute onset of hindquarter flaccidity
- duration of tactile allodynia alleviation, SD rats ([6]; lidocaine 60 mg/kg i.p. single dose, N=6, strain difference P<0.002): more than 16 days
- effect on tactile allodynia, SD rats ([6]; single i.p. dose, lidocaine 60 mg/kg, 3-OHL 15 mg/kg (P<0.05)): sustained effect on tactile allodynia in SD rats; also recorded: persistent effects of lidocaine against allodynia
- time of transient effect, DA rats ([7]; lidocaine 60 mg/kg i.p.): 30 min
- effect on tactile allodynia, DA rats [7]: not effective in this regard in DA rats; also recorded: no sustained effect of lidocaine in DA rats
- effect on tactile allodynia, DA rats ([7]; listed as Lidocaine): no sustained effect whatsoever
- effect on allodynia, intravenous route (earlier reports) ([8]; listed as Lidocaine): effective against allodynia by the intravenous
- effect on allodynia, intravenous route (earlier reports) [8]: long lasting effect by the IV route
- anti-allodynic effect, IT / regional route (earlier report) [9]: no anti-allodynic effect after termination of motor block
- ED50, suppression of spontaneous activity [10]: 5.7 µg/mL
- ED50 for discharge suppression in neuromata (neuromata): 6 mg/kg
- ED50 for discharge suppression, dorsal root ganglion (dorsal root ganglion): 1 mg/kg
- suppression of sural nerve evoked after discharges [11]: suppression of polysynaptic (spinal cord) sural nerve evoked after discharges
- conduction block at the peripheral terminal [12]: without evidence of conduction block at the peripheral terminal
- effect on polysynaptic C-fiber evoked flexor responses ([12]; mustard oil and noxious heat): suppresses polysynaptic C-fiber evoked flexor responses to mustard oil and noxious heat
- effect on wide dynamic range neuron activity [13]: selectively suppresses the increased wide dynamic range neuronal activity seen ipsilateral to chronic peripheral nerve injury; also recorded: suppresses noxious-evoked activity in wide dynamic range neurons in the rat
- thermal thresholds ([3]; intravenous lidocaine, painful diabetic neuropathy): without alteration in thermal thresholds
- clinical effect in painful diabetic neuropathy [3]: reduced pain scores for several days
- clinical effect in peripheral nerve injury pain [4]: decreases in spontaneous pain, albeit of short duration
- nociceptive flexion response [14]: suppression of the centrally organized nociceptive flexion response
- 3-hydroxylation / production of 3-OH L in rats [15]: lack of 3-hydroxylation in this strain

Structure (SMILES): CCNCC(=O)Nc1c(C)cccc1C [MEGX, Monoethylglycinexylidide]
- allodynia suppression by IV MEGX ([1]; 20 mg/kg, infused over 60 minutes): completely devoid of anti-allodynia activity by the intravenous route; also recorded: no effect whatsoever
- PWT post infusion ([1]; MEGX 20 mg/kg IV infused over 60 minutes, baseline 1.7±0.6 g): 1.96 ± 0.4 g
- effect on allodynia thresholds after IT delivery [5]: not MEGX, suppressed allodynia; also recorded: no effect on PWT at this limiting dose
- enzyme producing the metabolite MEGX [16]: produced by the P45ONF(human) (P-450 PB-1(rat)(IIIA4) enzyme
